Laboratory results reported in US7348300B2, “Acetylenic diol ethylene oxide/propylene oxide adducts and processes for their manufacture” (Air Products and Chemicals, Inc., priority 1999, dated 2008).
Where two headings read alike, the source gives them in different places.

Experiments:
[1] = Equilibrium surface tension, Wilhemy plate method; format: physicochemical; details: 0.1 wt %
Procedure: Process solutions containing 0.1 weight percent of a surfactant derived from 2,5,8,11-tetramethyl-6-dodecyne-5,8-diol or containing a fluorosurfactant, potassium perfluorooctane carboxylate provided by 3M of St. Louis, Mo. were prepared in order to compare the equilibrium surface tension (EST) and dynamic surface tension (DST). The EST for both solutions was measured using the Wilhemy plate method on a Kruss BP3 bubble pressure tensiometer manufactured by Kruss, Inc. of Charlotte, N.C.

[2] = Dynamic surface tension of aqueous solutions, maximum bubble pressure method
Text: In the following Examples dynamic surface tension data were obtained for aqueous solutions of various compounds using the maximum bubble pressure method at bubble rates from 0.1 bubbles/second (b/s) to 20 b/s. […] In practical terms, high bubble rates correspond to high printing speeds in lithographic printing, high spray or roller velocities in coating applications, and rapid application rates for agricultural products.
This value is a measure of the efficiency of a surfactant.
The critical aggregation concentrations (solubility limit or critical micelle concentration) were determined by intersection of the linear portion of a surface tension/ In concentration curve with the limiting surface tension as is described in many textbooks. […]
Process solutions containing 0.1 weight percent of a surfactant derived from 2,5,8,11-tetramethyl-6-dodecyne-5,8-diol or containing a fluorosurfactant, potassium perfluorooctane carboxylate provided by 3M of […]. were prepared in order to compare the equilibrium surface tension (EST) and dynamic surface tension (DST). The EST for both solutions was measured using the Wilhemy plate method on a […] manufactured by Kruss, Inc. of Charlotte, N.C. The DST of each process solution was measured via the maximum bubble pressure method.

[3] = Ross-Miles foam test based upon ASTM D 1173-53; format: physicochemical; details: 0.1 wt % solution
Procedure: In this test, a 0.1 wt % solution of the surfactant is added from an elevated foam pipette to a foam receiver containing the same solution. The foam height is measured at the completion of the addition (“Initial Foam Height”) and the time required for the foam to dissipate is recorded (“Time to 0 Foam”). This test provides a comparison between the foaming characteristics of various surfactant solutions. In general, in coatings, inks, and agricultural formulations, foam is undesirable because is complicates handling and can lead to coating and print defects, and to inefficient application of agricultural materials.

Sol Limit / critical aggregation concentration (CAG) [2] | RM Foam initial (Initial Foam Height) [3] | RM Foam t to 0 (Time to 0 Foam) [3] | Sol Limit / critical aggregation concentration (CAG) ([2]; solubility limit or critical micelle concentration in water) | RM Foam, foam height after 5 minutes [3] | Molecule | EST [1]
– | – | – | – | – | O=C([O-])C(F)(F)C(F)(F)C(F)(F)C(F)(F)C(F)(F)C(F)(F)C(F)(F)C(F)(F)F.[K+] [Fluorosurfactant, potassium perfluorooctane carboxylate, reference compound] | 21.2 dyne/cm
0.21 wt % | 1.0 cm | 10 s | – | – | 3.5 mole ethoxylate of 2,4,7,9-tetramethyl-5-decyne-4,7-diol capped with 2 moles of propylene oxide [Example 3] | –
– | 2.1 cm | – | (0.78) wt % | 1.3 cm | 10 mole EO/2 mole PO block derivative of 2,4,7,9-tetramethyl-5-decyne-4,7-diol [Example 5] | –
